{
  "source": "patent US10898451B2",
  "about": "(Board of Regents of the University of Texas System, priority 2018, dated 2021)",
  "key": {"anti-NMDAR encephalitis": {"system": "anti-NMDAR encephalitis", "assay": "Case study: tramadol pre-treatment with therapeutic plasma exchange (PLEX) in a patient with anti-NMDAR encephalitis", "assay_type": "in vivo, human", "text": "Described herein is a previously healthy person with newly diagnosed seizures and schizophrenia. […] At that time, they were started on solumedrol 1 g each day for five days along with the last two days of the steroid course being completed. […] Their anti-epileptic medications were escalated to include levetiracetam, phenobarbital, and lacosimide.\nThe assay used a semi-quantitative indirect immunofluorescence on human embryonic kidney cell cultures expressing recombinant NMDA receptors (transfected HEK 293 cells). […] NMDA receptor antibodies were not sent from their serum. […] Six days after their colectomy, PLEX was restarted for another five sessions."}, "[1]": {"settings": "oral formulation; Grond and Sablotzki 2004; cited from earlier work"}, "[2]": {"settings": "Grond and Sablotzki 2004; cited from earlier work"}, "[3]": {"settings": "PLEX in combination with tramadol 100 mg enterally three times a day"}},
  "data": [
    {"compound": "COc1cccc(C2(O)CCCCC2CN(C)C)c1", "note": "(stereo not shown) [tramadol, 2-(dimethylaminomethyl)-1-(3-methoxyphenyl)cyclohexanol]", "values": [
      {"measurement": "facial dyskinesias by the end of the fifth PLEX session", "setting": "anti-NMDAR encephalitis; [3]", "value": "completely resolved"},
      {"measurement": "following commands by the end of the third PLEX session", "setting": "anti-NMDAR encephalitis; [3]", "value": "began to follow commands"},
      {"measurement": "level of consciousness by the end of the fifth PLEX session", "setting": "anti-NMDAR encephalitis; [3]", "value": "alert and awake enough to interact with their care providers"},
      {"measurement": "overall safety and efficacy in anti-NMDAR encephalitis", "setting": "anti-NMDAR encephalitis; conclusion of the case study", "value": "safe and an effective treatment"},
      {"measurement": "recurrence of symptoms at follow up", "setting": "anti-NMDAR encephalitis; nine months after symptoms onset", "value": "has not had any recurrent symptoms"},
      {"measurement": "facial dyskinesias after the first PLEX session", "setting": "anti-NMDAR encephalitis; patient, tramadol 100 mg enterally three times a day, one hour before each of five PLEX sessions", "value": "resolved"},
      {"measurement": "eye opening immediately following the first PLEX session", "setting": "anti-NMDAR encephalitis; tramadol 100 mg enterally three times a day, one hour before each PLEX session", "value": "opened their eyes spontaneously"},
      {"measurement": "absorption", "setting": "[1]", "value": "completely absorbed"},
      {"measurement": "brain concentration versus plasma", "setting": "[1]", "value": "higher brain concentration than in plasma"},
      {"measurement": "peak onset", "setting": "[1]", "value": "approximately 60 min"},
      {"measurement": "patients with serious side effects (hypotension, circulatory collapse, pruritis, sleep disorders, somnolence, abdominal pain, tachycardia)", "setting": "[2]", "value": "less than 1%"}
    ]},
    {"compound": "CNC1(c2ccccc2Cl)CCCCC1=O", "note": "(stereo not shown) [ketamine]", "values": [
      {"measurement": "facial dyskinesias during the first three PLEX sessions (without tramadol)", "setting": "anti-NMDAR encephalitis; ketamine at 20 mcg/kg/min, patient obtunded and not following commands", "value": "minimal improvement"}
    ]},
    {"compound": "C[C@H]1C[C@@H]2[C@H]([C@@H](O)C[C@@]3(C)[C@H]2CC[C@]3(O)C(=O)COC(=O)CCC(=O)O)[C@@]2(C)C=CC(=O)C=C12", "note": "[solumedrol]", "values": [
      {"measurement": "improvement of symptoms after steroid course", "setting": "anti-NMDAR encephalitis; solumedrol 1 g each day for five days", "value": "failed to improve any of their symptoms"}
    ]}
  ]
}
